Reference: patent US20120270770A1, “Anti-angiogenic peptides and their uses” (priority 2010, published 2012)

System: ulcerative colitis / IBD and subsequent colon cancer in IL-10 deficient mice
Assay: Murine model of ulcerative colitis: IL-10 deficient mice
Type: in vivo, mouse
From the text: An IL-10 deficient strain of mouse was used in the study to determine the ability of JC15-10N (a novel anti-inflammatory molecule) to limit their developing IBD and subsequent colon cancer.
The Wild Type and IL-10 deficient mouse strains used in this study was obtained from Jackson Laboratories and are designated as:
The following groups of animals comprised the present experiment:
Controls: • 1. Controls (129 SvEv 129^−/− untreated) • 2. Controls (129 SvEv 129^−/− Sham/Saline Only) • 3. 129 SvEv Wild-type Controls (untreated) • 4. 129 SvEv Wild-type (Sham/Saline Only)
Treatments with JC15-10N: • 1. Pre-inflammatory (129 SvEv 129^−/−-Prevention-1 injection/week) • 2. Frank inflammatory (129 SvEv 129^−/−-Treatment-1 injection/week) • 3. Pre-inflammatory (129 SvEv 129^−/−-Prevention-1* injections/week) • 4. Frank-inflammatory (129 SvEv 129^−/−-Treatment-1* injections/week) • 5. 129 SvEv Wild-type (Prevention-1 injection/week) • 6. 129 SvEv Wild-type (Treatment-1 injection/week) • 7. 129 SvEv Wild-type (Prevention-1* injections/week) • 8. 129 SvEv Wild-type (Treatment-1* injections/week) • 9 animals/group X 12 groups (including controls)=108 mice×2 repetitions=216 mice; 1 injection/week=0.5 mg/kg subQ and 1* injection/week=5.0 mg/kg subQ injection/week. • In order to encourage inflammation, prior to the start of the experiment, pathogenic murine strains of E. coli and E. faecalis bacteria were administered to the mice in the appropriate treatment groups via oral and anal gavages, designated EC/EF.
Pre-inflammatory (4 wks.) and frank-inflammatory animals (6 wks.-8 wks) were treated with JC15-10N via subcutaneous injections every week for 14 weeks. The compound was diluted in saline to obtain treatment doses of 0.5 and 5.0 mg/kg of body weight respectively and was delivered subcutaneously using tuberculin needles. As controls, some animals were injected with saline only or remained uninjected during the course of the experiment. The procedure described by Hem and coworkers (Laboratory Animals Ltd. 1998. V 32. 364-368) was used to collect 100 micro-liters of blood from the lateral saphenous vein of all test animals once per week over the 14 weeks of peptide therapy. Blood serum was analyzed for changes in the levels of pro-inflammatory and anti-inflammatory cytokines over the 14-week treatment period. At the end of the 14-week treatment period animals were euthanized using a CO2 chamber and flushing the peritoneum with PBS will collect peritoneal lavage fluid. Colons were removed and flushed separately with PBS. Cytokine levels in the peritoneal lavage fluids and colonic fluids of all animals were compared. Following colonic flushes; colons were splayed and examined for inflammatory lesions. Lesions were excised with scissors and the remainder of the colon rolled into gut rolls. […]

[1] = treated IL-10−/− mice vs control IL-10−/− receiving no treatment

FAKKFAKKFK [JC15-10N]
protective effect in IL-10 deficient mice (0.5 and 5.0 mg/kg subQ weekly, 14 weeks, preliminary data, 0.5 mg/kg somewhat better than 5.0 mg/kg): profound protective effect
colitis [1]: significant reduction
presence of advanced disease [1]: significant reduction
subsequent development of colon cancer [1]: significant reduction
